Experimental data as given in PubChem BioAssay AID248 (DTP/NCI, 2004).
Several values for one entry are separate records, joined by “and”; a condition that tells them apart may be missing. Equal entries are not always repeated. Inconclusive results and toxic doses are left out.

Test system: L1210 leukemia ip in BDF1 mice, survival T/C
Assay: NCI In Vivo Anticancer Drug Screen. Data for tumor model L1210 Leukemia (intraperitoneal) in B6D2F1 (BDF1) mice
Details: endpoint: mean survival time, higher = longer survival
How it was run: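 Tumor was transplanted into mice, which were then dosed with test compound or vehicle alone. Survival was recorded for each group, and the treated figure was expressed relative to the control figure.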

[1] = dose: 100.0 mg/kg/injection, schedule: Q01DX009 (ip), vehicle: Klucel (hydroxypropylcellulose) (HPC)
[2] = dose: 200.0 mg/kg/injection, schedule: Q01DX009 (ip), vehicle: Klucel (hydroxypropylcellulose) (HPC)
[3] = dose: 400.0 mg/kg/injection, schedule: Q01DX009 (ip), vehicle: Klucel (hydroxypropylcellulose) (HPC)
[4] = dose: 100.0 mg/kg/injection, schedule: Q04DX003 (ip), vehicle: saline
[5] = dose: 200.0 mg/kg/injection, schedule: Q04DX003 (ip), vehicle: saline
[6] = dose: 400.0 mg/kg/injection, schedule: Q04DX003 (ip), vehicle: saline
[7] = dose: 100.0 mg/kg/injection, schedule: Q04DX003 (ip), vehicle: saline with Tween-80
[8] = dose: 200.0 mg/kg/injection, schedule: Q04DX003 (ip), vehicle: saline with Tween-80
[9] = dose: 400.0 mg/kg/injection, schedule: Q01DX009 (ip), vehicle: saline with Tween-80
[10] = dose: 400.0 mg/kg/injection, schedule: Q04DX003 (ip), vehicle: saline with Tween-80
[11] = dose: 25.0 mg/kg/injection, schedule: Q04DX003 (ip), vehicle: Klucel (hydroxypropylcellulose) (HPC)
[12] = dose: 50.0 mg/kg/injection, schedule: Q04DX003 (ip), vehicle: Klucel (hydroxypropylcellulose) (HPC)
[13] = dose: 100.0 mg/kg/injection, schedule: Q04DX003 (ip), vehicle: Klucel (hydroxypropylcellulose) (HPC)
[14] = dose: 200.0 mg/kg/injection, schedule: Q04DX003 (ip), vehicle: Klucel (hydroxypropylcellulose) (HPC)
[15] = dose: 400.0 mg/kg/injection, schedule: Q04DX003 (ip), vehicle: Klucel (hydroxypropylcellulose) (HPC)
[16] = dose: 300.0 mg/kg/injection, schedule: Q01DX001 (ip), vehicle: carboxymethylcellulose (CMC)
[17] = dose: 50.0 mg/kg/injection, schedule: Q01DX001 (ip), vehicle: carboxymethylcellulose (CMC)
[18] = dose: 100.0 mg/kg/injection, schedule: Q01DX001 (ip), vehicle: carboxymethylcellulose (CMC)
[19] = dose: 200.0 mg/kg/injection, schedule: Q01DX001 (ip), vehicle: carboxymethylcellulose (CMC)

## CC(=O)Oc1cc2c[n+](C)c3c4cc(OC(C)=O)c(OC(C)=O)cc4ccc3c2cc1OC(C)=O
dose: 20.0 mg/kg/injection, schedule: Q01DX009 (ip), vehicle: saline
  T/C: 101 % of control
dose: 40.0 mg/kg/injection, schedule: Q01DX009 (ip), vehicle: saline
  T/C: 109 % of control
dose: 80.0 mg/kg/injection, schedule: Q01DX009 (ip), vehicle: saline
  T/C: 104 % of control
dose: 120.0 mg/kg/injection, schedule: Q01DX009 (ip), vehicle: saline
  T/C: 91 % of control

## CC1(CBr)Oc2ccccc2O1
[1]
  T/C: 115 % of control
[2]
  T/C: 97 % of control
[3]
  T/C: 101 % of control

## O=C(N/C=C/NC(=O)OC(=O)C(Cl)(Cl)Cl)OC(=O)C(Cl)(Cl)Cl
[4]
  T/C: 92 % of control
[5]
  T/C: 88 % of control
[6]
  T/C: 93 % of control

## CCOc1ccc(NC(=O)CCCCCCCCC(=O)Nc2ccc(OCC)cc2)cc1
dose: 50.0 mg/kg/injection, schedule: Q01DX009 (ip), vehicle: saline with Tween-80
  T/C: 98 % of control
dose: 100.0 mg/kg/injection, schedule: Q01DX001 (ip), vehicle: saline with Tween-80
  T/C: 96 % of control
dose: 100.0 mg/kg/injection, schedule: Q04DX002 (ip), vehicle: saline with Tween-80
  T/C: 95 % of control and 110 % of control
[7]
  T/C: 88 % of control
dose: 200.0 mg/kg/injection, schedule: Q01DX001 (ip), vehicle: saline with Tween-80
  T/C: 91 % of control
dose: 200.0 mg/kg/injection, schedule: Q04DX002 (ip), vehicle: saline with Tween-80
  T/C: 100 % of control and 89 % of control
[8]
  T/C: 96 % of control
dose: 400.0 mg/kg/injection, schedule: Q01DX001 (ip), vehicle: saline with Tween-80
  T/C: 88 % of control
[9]
  T/C: 100 % of control and 108 % of control
dose: 400.0 mg/kg/injection, schedule: Q04DX002 (ip), vehicle: saline with Tween-80
  T/C: 94 % of control and 97 % of control
[10]
  T/C: 91 % of control

## Cc1ccc(NC2=CCC(=O)OC2=O)cc1
dose: 25.0 mg/kg/injection, schedule: Q01DX009 (ip), vehicle: Klucel (hydroxypropylcellulose) (HPC)
  T/C: 93 % of control
[11]
  T/C: 100 % of control
dose: 50.0 mg/kg/injection, schedule: Q01DX009 (ip), vehicle: Klucel (hydroxypropylcellulose) (HPC)
  T/C: 88 % of control
[12]
  T/C: 105 % of control
[1]
  T/C: 90 % of control
[13]
  T/C: 97 % of control
[2]
  T/C: 97 % of control
[14]
  T/C: 97 % of control
[3]
  T/C: 88 % of control
[15]
  T/C: 92 % of control

## Cc1cccc(Cl)[n+]1[O-]
[4]
  T/C: 97 % of control
[5]
  T/C: 97 % of control
[6]
  T/C: 86 % of control

## CC1CN1C1=C(F)C(=O)C(N2CC2C)=C(F)C1=O (stereo not given)
dose: 0.19 mg/kg/injection, schedule: Q01DX009 (ip), vehicle: Klucel (hydroxypropylcellulose) (HPC)
  T/C: 105 % of control
dose: 0.39 mg/kg/injection, schedule: Q01DX009 (ip), vehicle: Klucel (hydroxypropylcellulose) (HPC)
  T/C: 104 % of control
dose: 0.78 mg/kg/injection, schedule: Q01DX009 (ip), vehicle: Klucel (hydroxypropylcellulose) (HPC)
  T/C: 102 % of control
dose: 0.78 mg/kg/injection, schedule: Q04DX003 (ip), vehicle: Klucel (hydroxypropylcellulose) (HPC)
  T/C: 103 % of control
dose: 1.56 mg/kg/injection, schedule: Q01DX009 (ip), vehicle: Klucel (hydroxypropylcellulose) (HPC)
  T/C: 100 % of control
dose: 1.56 mg/kg/injection, schedule: Q04DX003 (ip), vehicle: Klucel (hydroxypropylcellulose) (HPC)
  T/C: 105 % of control
dose: 3.12 mg/kg/injection, schedule: Q01DX009 (ip), vehicle: Klucel (hydroxypropylcellulose) (HPC)
  T/C: 100 % of control
dose: 3.12 mg/kg/injection, schedule: Q04DX003 (ip), vehicle: Klucel (hydroxypropylcellulose) (HPC)
  T/C: 101 % of control
dose: 4.6 mg/kg/injection, schedule: Q01DX009 (ip), vehicle: Klucel (hydroxypropylcellulose) (HPC)
  T/C: 103 % of control

## O=S(=O)(O)C(O)c1ccccc1 (stereo not given)
dose: 100.0 mg/kg/injection, schedule: Q04DX002 (ip), vehicle: saline
  T/C: 97 % of control
dose: 200.0 mg/kg/injection, schedule: Q04DX002 (ip), vehicle: saline
  T/C: 100 % of control
dose: 400.0 mg/kg/injection, schedule: Q04DX002 (ip), vehicle: saline
  T/C: 103 % of control

## c1ccc2c(-c3nc4ccccc4[nH]3)cccc2c1
dose: 100.0 mg/kg/injection, schedule: Q01DX009 (ip), vehicle: saline with Tween-80
  T/C: 91 % of control
[7]
  T/C: 93 % of control
dose: 200.0 mg/kg/injection, schedule: Q01DX009 (ip), vehicle: saline with Tween-80
  T/C: 96 % of control
[8]
  T/C: 93 % of control
[9]
  T/C: 93 % of control
[10]
  T/C: 102 % of control

## OC(c1ccccc1)C(c1ccccc1)N1CC1 (stereo not given)
dose: 75.0 mg/kg/injection, schedule: Q01DX001 (ip), vehicle: carboxymethylcellulose (CMC)
  T/C: 93 % of control
dose: 150.0 mg/kg/injection, schedule: Q01DX001 (ip), vehicle: carboxymethylcellulose (CMC)
  T/C: 92 % of control
[16]
  T/C: 92 % of control

## CCCCCC(/C=N\Nc1nnc(N/N=C\C(=C\c2ccccc2)CCCCC)c2ccccc12)=C/c1ccccc1
[17]
  T/C: 102 % of control
dose: 88.0 mg/kg/injection, schedule: Q01DX001 (ip), vehicle: carboxymethylcellulose (CMC)
  T/C: 98 % of control
[18]
  T/C: 108 % of control
dose: 133.0 mg/kg/injection, schedule: Q01DX001 (ip), vehicle: carboxymethylcellulose (CMC)
  T/C: 101 % of control
[19]
  T/C: 104 % of control and 114 % of control
[16]
  T/C: 102 % of control and 104 % of control

## O=[As](O)(O)Cc1cccc(F)c1
[11]
  T/C: 96 % of control
[12]
  T/C: 101 % of control
[13]
  T/C: 87 % of control

## CC1(C)CC2C(=O)c3ccccc3NC2c2ccccc21 (stereo not given)
[17]
  T/C: 96 % of control
[18]
  T/C: 102 % of control
dose: 100.0 mg/kg/injection, schedule: Q04DX003 (ip), vehicle: acetone
  T/C: 91 % of control
[19]
  T/C: 98 % of control
dose: 200.0 mg/kg/injection, schedule: Q04DX003 (ip), vehicle: acetone
  T/C: 86 % of control
dose: 400.0 mg/kg/injection, schedule: Q01DX001 (ip), vehicle: carboxymethylcellulose (CMC)
  T/C: 98 % of control
dose: 400.0 mg/kg/injection, schedule: Q04DX003 (ip), vehicle: acetone
  T/C: 93 % of control

## Nc1ccc(C(=O)Nc2ccc(Nc3ccncc3)cc2)cc1
[1]
  T/C: 112 % of control
[13]
  T/C: 108 % of control
[2]
  T/C: 106 % of control
[14]
  T/C: 103 % of control
[3]
  T/C: 103 % of control
[15]
  T/C: 106 % of control

## Cc1[nH]c(=S)[nH]c(=O)c1CCSC(=N)N
dose: 100.0 mg/kg/injection, schedule: Q01DX001 (ip), vehicle: saline
  T/C: 108 % of control
dose: 200.0 mg/kg/injection, schedule: Q01DX001 (ip), vehicle: saline
  T/C: 103 % of control

## CC(C)(C)NCC1C(c2ccccc2)C1c1ccccc1 (stereo not given)
dose: 25.0 mg/kg/injection, schedule: Q04DX002 (ip), vehicle: Klucel (hydroxypropylcellulose) (HPC)
  T/C: 92 % of control
dose: 50.0 mg/kg/injection, schedule: Q04DX002 (ip), vehicle: Klucel (hydroxypropylcellulose) (HPC)
  T/C: 88 % of control

## CCC/C(=N\NC(N)=O)C(OC)OC
dose: 100.0 mg/kg/injection, schedule: Q01DX001 (ip), vehicle: other
  T/C: 94 % of control
dose: 200.0 mg/kg/injection, schedule: Q01DX001 (ip), vehicle: other
  T/C: 105 % of control
dose: 400.0 mg/kg/injection, schedule: Q01DX001 (ip), vehicle: other
  T/C: 92 % of control

## C#CC1CC2C3CCC4=CC(=O)CCC4(C)C3CCC2(C)C1N(C)C (stereo not given)
dose: 50.0 mg/kg/injection, schedule: Q01DX001 (sc), vehicle: steriod suspending solution
  T/C: 98 % of control
dose: 100.0 mg/kg/injection, schedule: Q01DX001 (sc), vehicle: steriod suspending solution
  T/C: 104 % of control

## CCOC(=O)/C=C1\CCCc2cc(C)c(C)cc21
dose: 100.0 mg/kg/injection, schedule: Q04DX003 (ip), vehicle: other
  T/C: 105 % of control
dose: 200.0 mg/kg/injection, schedule: Q04DX003 (ip), vehicle: other
  T/C: 94 % of control
dose: 400.0 mg/kg/injection, schedule: Q04DX003 (ip), vehicle: other
  T/C: 104 % of control

## O=P1(N(CCCl)CCCl)NC(OO)CCO1 (stereo not given)
dose: 200.0 mg/kg/injection, schedule: Q01DX001 (ip), vehicle: DMSO
  T/C: 270 % of control
